Like-named read-outs stand apart in the source and are kept apart here.
Experiments:
[1] = target: T1, ALK2 R206H (GST-tagged mutant ALK2) (Homo sapiens, UniProt Q04771, R206H); experiment: ALK binding assay (LANTHASCREEN TR-FRET competitive binding, displacement of Kinase Tracer 178)
T1 construct: purchased Carna Bioscience or ThermoFisher 09-148 or PV6232
T1 sequence (Q04771 21-509 R206H): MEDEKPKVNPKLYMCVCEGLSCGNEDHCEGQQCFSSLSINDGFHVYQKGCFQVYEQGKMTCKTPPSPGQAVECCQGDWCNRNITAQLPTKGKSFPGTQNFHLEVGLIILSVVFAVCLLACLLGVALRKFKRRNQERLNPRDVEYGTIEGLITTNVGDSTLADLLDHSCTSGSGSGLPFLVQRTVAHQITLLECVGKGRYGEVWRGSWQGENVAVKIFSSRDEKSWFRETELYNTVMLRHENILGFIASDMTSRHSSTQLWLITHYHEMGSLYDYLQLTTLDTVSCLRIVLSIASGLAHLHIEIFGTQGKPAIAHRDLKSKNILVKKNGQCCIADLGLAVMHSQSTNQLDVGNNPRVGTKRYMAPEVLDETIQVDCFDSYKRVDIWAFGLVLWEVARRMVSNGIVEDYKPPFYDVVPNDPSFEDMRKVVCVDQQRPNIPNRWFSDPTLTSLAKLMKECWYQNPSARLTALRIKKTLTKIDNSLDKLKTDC

human ALK2 R206H = target: T2, human ALK2 R206H (Homo sapiens, UniProt Q04771, R206H); experiment: Cell-based ALK2-R206H cell activity assay (Smad1-Ser463/Ser465 phosphorylation by AlphaLISA in HEK293-ALK2-R206H cells)
T2 construct: expressed in transfected cells; host or cells: HEK293 (ATCC CRL1573), lentivirus transduction, blasticidin selection
T2 sequence (Q04771 21-509 R206H): T1 sequence (Q04771 21-509 R206H)
Summary of the method: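 Stable HEK293 cells expressing C-terminally FLAG-tagged human ALK2 R206H (lentiviral, blasticidin-selected) were treated with compounds in 10-point, 3-fold dilutions from 10 μM or 1 μM top, in duplicate. Smad1 Ser463/Ser465 phosphorylation was read by AlphaLISA.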

[2] = ALK2 R206H, LANTHASCREEN TR-FRET competitive binding, read-out: Binding Assay (IC50)
[3] = read-out: Cell Line (Cell Assay IC50)

SMILES	IC50 [1, 2]	IC50 (human ALK2 R206H; [3])	IC50 [1]	IC50 (human ALK2 R206H; Cell Line (Cell Assay IC50))
CCOC1(c2ccc(-c3cc4c(N5CCN(C(=O)OC6COC6)CC5)ccnn4c3)nc2)CCN(C2CC2)CC1 [Compound 855]	< 10 nM	< 100 nM		
CCOC1(c2ccc(-c3cc4c(N5CCN(C(=O)NC(C)C)CC5)ccnn4c3)cc2)CCN(C2COC2)CC1 [Compound 856]	< 10 nM	< 100 nM		
CCOC1(c2ccc(-c3cc4c(N5CCN(C(=O)OC6COC6)CC5)ccnn4c3)cc2)CCN(C(C)C)CC1 [Compound 857]	< 10 nM	< 100 nM		
CCOC1(c2ccc(-c3cc4c(N5CCN(C(=O)NC(C)C)CC5)ccnn4c3)nc2)CCN(C2COC2)CC1 [Compound 858]	< 10 nM	< 100 nM		
CC(C)N1CCC(COC(F)F)(c2ccc(-c3cc4c(N5CCN(C(=O)C6CC6)CC5)ccnn4c3)cc2)CC1 [Compound 859]	< 10 nM	< 100 nM		
CCOC1(c2ccc(-c3cc4c(N5CCN(C(=O)NC(C)C)CC5)ccnn4c3)nc2)CCN(C(C)CF)CC1 (stereo not drawn) [Compound 860]	< 10 nM	< 100 nM		
CCOC1(c2ccc(-c3cc4c(N5CCN(C(=O)NC(C)C)CC5)ccnn4c3)nc2)CCN(C[C@H](C)F)CC1 [Compound 861]	< 10 nM	< 100 nM		
COC1(c2ccc(-c3cc4c(N5CCN(C(=O)OC6COC6)CC5)ccnn4c3)nc2)CCN(C(C)CF)CC1 (stereo not drawn) [Compound 863]	< 10 nM	< 100 nM		
CCOC1(c2ccc(-c3cc4c(N5CCN(C(=O)O[C@H](C)CF)CC5)ccnn4c3)nc2)CCN(C(C)C)CC1 [Compound 864]	< 10 nM	< 100 nM		
CCOC1(c2ccc(-c3cc4c(N5CCN(C(=O)OC[C@H](C)F)CC5)ccnn4c3)nc2)CCN(C(C)C)CC1 [Compound 865]	< 10 nM	< 100 nM		
CCOC1(c2ccc(-c3cc4c(N5CCN(C(=O)OC[C@@H](C)F)CC5)ccnn4c3)nc2)CCN(C(C)C)CC1 [Compound 867]	< 10 nM	< 100 nM		
CC(C)NC(=O)N1CCN(c2ccnn3cc(-c4ccc([C@H]5CN(C(C)C)CC[C@@H]5OC(F)F)cc4)cc23)CC1 [Compound 868]	< 10 nM	< 100 nM		
CC(C)NC(=O)N1CCN(c2ccnn3cc(-c4ccc([C@@H]5CN(C(C)C)CC[C@H]5OC(F)F)cc4)cc23)CC1 [Compound 869]	< 10 nM	< 100 nM		
COC1(c2ccc(-c3cc4c(N5CCN(C(=O)[C@H]6C[C@H](C#N)C6)CC5)ccnn4c3)nc2)CCN(C2COC2)CC1 [Compound 870]	< 10 nM	< 100 nM		
CCOC1(c2ccc(-c3cc4c(N5CCN(C(=O)[C@H]6C[C@H](C#N)C6)CC5)ccnn4c3)nc2)CCN(C(C)C)CC1 [Compound 871]	< 10 nM	< 100 nM		
CCOC1(c2ccc(-c3cc4c(N5CCN(C(=O)OCC(F)F)CC5)ccnn4c3)nc2)CCN(C(C)C)CC1 [Compound 872]	< 10 nM	< 100 nM		
COC1(c2ccc(-c3cc4c(N5CCN(C(=O)OC6COC6)CC5)ccnn4c3)c(C#N)c2)CCN(C(C)C)CC1 [Compound 873]	< 10 nM	< 100 nM		
COC(=O)C1(c2ccc(-c3cc4c(N5CCN(C(=O)OC6COC6)CC5)ccnn4c3)cc2)CCN(C(C)C)CC1 [Compound 874]			< 10 nM	100 to 500 nM
CCOC1(c2ccc(-c3cc4c(N5CCN(C(=O)OC6COC6)CC5)ccnn4c3)nc2)CCN(C2COC2)CC1 [Compound 875]	< 10 nM	< 100 nM		
CCOC1(c2ccc(-c3cc4c(N5CCN(C(=O)O[C@@H]6CCOC6)CC5)ccnn4c3)nc2)CCN(C(C)C)CC1 [Compound 876]	< 10 nM	< 100 nM		
CCOC1(c2ccc(-c3cc4c(N5CCN(C(=O)O[C@H]6CCOC6)CC5)ccnn4c3)nc2)CCN(C(C)C)CC1 [Compound 877]	< 10 nM	< 100 nM		

SMILES	IC50 [1, 2]	IC50 (human ALK2 R206H; [3])	IC50 [1]	IC50 (human ALK2 R206H; Cell Line (Cell Assay IC50))
CCOC1(c2ccc(-c3cc4c(N5CCN(C(=O)OC6(C)COC6)CC5)ccnn4c3)nc2)CCN(C(C)C)CC1 [Compound 878]	< 10 nM	< 100 nM		
CCOC1(c2ccc(-c3cc4c(N5CCN(C(=O)OC6COC6C)CC5)ccnn4c3)nc2)CCN(C(C)C)CC1 (stereo not drawn) [Compound 879]	< 10 nM	< 100 nM		
CCOC1(c2ccc(-c3cc4c(N5CCN(C(=O)OC6COC6)CC5)ccnn4c3)nc2)CCN(CC(C)F)CC1 (stereo not drawn) [Compound 880]	< 10 nM	< 100 nM		
CCOC1(c2ccc(-c3cc4c(N5CCN(C(=O)OC6COC6)CC5)ccnn4c3)nc2)CCN(C[C@H](C)F)CC1 [Compound 882]	< 10 nM	< 100 nM		
COC1(c2ccc(-c3cc4c(N5CCN(C(=O)C6CC6)CC5)ccnn4c3)cc2)CCN([C@@H](C)COC(F)F)CC1 [Compound 883]	< 10 nM	< 100 nM		
COC1(c2ccc(-c3cc4c(N5CCN(C(=O)C6CC6)CC5)ccnn4c3)cc2)CCN([C@H](C)COC(F)F)CC1 [Compound 884]	< 10 nM	< 100 nM		
COC1(c2ccc(-c3cc4c(N5CCN(C(=O)C6CC6)CC5)ccnn4c3)nc2)CCN([C@H](C)COC(F)F)CC1 [Compound 885]	< 10 nM	< 100 nM		
COC1(c2ccc(-c3cc4c(N5CCN(C(=O)C6CC6)CC5)ccnn4c3)nc2)CCN([C@@H](C)COC(F)F)CC1 [Compound 886]	< 10 nM	< 100 nM		
CC(C)NC(=O)N1CCN(c2ccnn3cc(-c4ccc(C5(COC(F)F)CCN(C(C)C)CC5)cc4)cc23)CC1 [Compound 887]	< 10 nM	< 100 nM		
CC(C)N1CC[C@H](OC(F)F)[C@@H](c2ccc(-c3cc4c(N5CCN(C(=O)OC6COC6)CC5)ccnn4c3)cc2)C1 [Compound 888]	< 10 nM	< 100 nM		
CC(C)N1CC[C@@H](OC(F)F)[C@H](c2ccc(-c3cc4c(N5CCN(C(=O)OC6COC6)CC5)ccnn4c3)cc2)C1 [Compound 889]	< 10 nM	< 100 nM		
CCOC1(c2ccc(-c3cc4c(N5CCN(C(=O)[C@H]6C[C@H](C#N)C6)CC5)ccnn4c3)nc2)CCN(C2COC2)CC1 [Compound 890]	< 10 nM	< 100 nM		
CC(C)N1CCC(COC(F)F)(c2ccc(-c3cc4c(N5CCN(C(=O)OC6COC6)CC5)ccnn4c3)cc2)CC1 [Compound 891]	< 10 nM	< 100 nM		
COC1(c2ccc(-c3cc4c(N5CCN(C(=O)NC(C)C)CC5)ccnn4c3)cc2)CCN([C@@H](C)COC(F)F)CC1 [Compound 892]	< 10 nM	< 100 nM		
COC1(c2ccc(-c3cc4c(N5CCN(C(=O)NC(C)C)CC5)ccnn4c3)cc2)CCN([C@H](C)COC(F)F)CC1 [Compound 893]	< 10 nM	< 100 nM		
COC1(c2ccc(-c3cc4c(N5CCN(C(=O)NC(C)C)CC5)ccnn4c3)nc2)CCN([C@@H](C)COC(F)F)CC1 [Compound 894]	< 10 nM	< 100 nM		
CCOC1(c2ccc(-c3cc4c(N5CCN(C(=O)OC6CN(C(C)=O)C6)CC5)ccnn4c3)nc2)CCN(C(C)C)CC1 [Compound 895]	< 10 nM	100 to 500 nM		
COC1(c2ccc(-c3cc4c(N5CCN(C(=O)OC6COC6)CC5)ccnn4c3)cc2)CCN([C@@H](C)COC(F)F)CC1 [Compound 896]	< 10 nM	< 100 nM		
COC1(c2ccc(-c3cc4c(N5CCN(C(=O)OC6COC6)CC5)ccnn4c3)cc2)CCN([C@H](C)COC(F)F)CC1 [Compound 897]	< 10 nM	< 100 nM		
COC1(c2ccc(-c3cc4c(N5CCN(C(=O)OC6COC6)CC5)ccnn4c3)nc2)CCN([C@H](C)COC(F)F)CC1 [Compound 898]	< 10 nM	< 100 nM		
COC1(c2ccc(-c3cc4c(N5CCN(C(=O)OC6COC6)CC5)ccnn4c3)nc2)CCN([C@@H](C)COC(F)F)CC1 [Compound 899]	< 10 nM	< 100 nM		

— patent publication US10233186B2, “Inhibitors of activin receptor-like kinase” (BLUEPRINT MEDICINES CORPORATION, priority 2016, dated 2019)
